Test [1] in a line: Displacement of [3H]DTG from opioid sigma2 receptor in rat brain homogenate. The class given is tissue-based. (Loss of bound radioactivity is the signal in a displacement assay; it reports binding, not function.)
For test [2], the species on record is Rattus norvegicus. The experiment in a line: Ratio of Ki for rat sigma1 opioid receptor to Ki for rat sigma2 opioid receptor.
Test [3] has as its system Mus musculus. The test is described as follows: Inhibition of cocaine-induced convulsions in ip dosed Swiss Webster mouse after 15 mins. Type of test: functional, organism-based.
For test [4], the target named is Sigma non-opioid intracellular receptor 1 (Rattus norvegicus, UniProt Q9R0C9). The test is described as follows: Displacement of [3H](+)-pentazocine from opioid sigma1 receptor in rat brain homogenate. Type of test: tissue-based.
The target in test [5] is Glutamate NMDA receptor. The experiment in a line: Displacement of [3H]TCP from NMDA receptor in rat brain homogenate. Type of test: tissue-based.
Test [6] in a line: Displacement of [3H]ketanserin from 5HT2 receptor in rat brain homogenate. Type of test: tissue-based.
The target in test [7] is Sodium-dependent dopamine transporter (Rattus norvegicus, UniProt P23977). The experiment in a line: Displacement of [3H]WIN-35428 from dopamine transporter in rat brain homogenate. The class given is tissue-based.
For test [8], the target named is Sodium-dependent serotonin transporter (Rattus norvegicus, UniProt P31652). The experiment in a line: Displacement of [3H]paroxetine from serotonin transporter in rat brain homogenate. Type of test: tissue-based.
Test [9] deals with Norepinephrine transporter (Rattus norvegicus, UniProt Q9WTR4). The test is described as follows: Displacement of [3H]nisoxetine from norepinephrine transporter in rat brain homogenate. Type of test: tissue-based.
Test [10] can be described thus: Displacement of [3H]bremazocine from opioid receptor in rat brain homogenate. The class given is tissue-based.

The structures appear in SMILES notation. pKi: −log10 of the molar value. The source made the active and inactive calls. The calls are words filed in the database; no cut-off is given here. Where only a bound is given, the exact number is not on record here.

Sequence of Sigma non-opioid intracellular receptor 1 (Q9R0C9 whole entry): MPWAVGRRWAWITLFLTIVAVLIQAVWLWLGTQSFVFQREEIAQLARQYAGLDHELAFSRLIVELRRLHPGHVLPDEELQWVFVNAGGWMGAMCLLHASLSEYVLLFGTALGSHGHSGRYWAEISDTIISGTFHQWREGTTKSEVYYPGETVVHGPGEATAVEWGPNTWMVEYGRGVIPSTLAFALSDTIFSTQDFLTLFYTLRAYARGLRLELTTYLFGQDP
Sequence of Sodium-dependent dopamine transporter (P23977 whole entry): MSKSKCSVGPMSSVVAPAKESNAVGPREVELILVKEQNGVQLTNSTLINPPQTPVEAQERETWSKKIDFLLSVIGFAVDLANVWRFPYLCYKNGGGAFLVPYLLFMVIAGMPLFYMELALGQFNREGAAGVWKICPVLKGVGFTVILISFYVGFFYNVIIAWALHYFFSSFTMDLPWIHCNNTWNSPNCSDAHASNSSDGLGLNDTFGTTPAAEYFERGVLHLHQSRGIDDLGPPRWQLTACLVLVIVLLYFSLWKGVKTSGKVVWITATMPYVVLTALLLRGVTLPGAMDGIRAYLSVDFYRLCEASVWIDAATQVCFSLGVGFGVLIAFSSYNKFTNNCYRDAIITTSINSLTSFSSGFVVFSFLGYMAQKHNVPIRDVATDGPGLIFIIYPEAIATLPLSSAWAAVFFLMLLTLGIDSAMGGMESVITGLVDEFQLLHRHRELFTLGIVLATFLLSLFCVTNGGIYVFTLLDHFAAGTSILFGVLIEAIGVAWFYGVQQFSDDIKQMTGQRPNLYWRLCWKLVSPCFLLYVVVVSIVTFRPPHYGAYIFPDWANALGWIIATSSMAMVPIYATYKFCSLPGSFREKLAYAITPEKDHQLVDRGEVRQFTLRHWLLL
Sequence of Sodium-dependent serotonin transporter (P31652 whole entry): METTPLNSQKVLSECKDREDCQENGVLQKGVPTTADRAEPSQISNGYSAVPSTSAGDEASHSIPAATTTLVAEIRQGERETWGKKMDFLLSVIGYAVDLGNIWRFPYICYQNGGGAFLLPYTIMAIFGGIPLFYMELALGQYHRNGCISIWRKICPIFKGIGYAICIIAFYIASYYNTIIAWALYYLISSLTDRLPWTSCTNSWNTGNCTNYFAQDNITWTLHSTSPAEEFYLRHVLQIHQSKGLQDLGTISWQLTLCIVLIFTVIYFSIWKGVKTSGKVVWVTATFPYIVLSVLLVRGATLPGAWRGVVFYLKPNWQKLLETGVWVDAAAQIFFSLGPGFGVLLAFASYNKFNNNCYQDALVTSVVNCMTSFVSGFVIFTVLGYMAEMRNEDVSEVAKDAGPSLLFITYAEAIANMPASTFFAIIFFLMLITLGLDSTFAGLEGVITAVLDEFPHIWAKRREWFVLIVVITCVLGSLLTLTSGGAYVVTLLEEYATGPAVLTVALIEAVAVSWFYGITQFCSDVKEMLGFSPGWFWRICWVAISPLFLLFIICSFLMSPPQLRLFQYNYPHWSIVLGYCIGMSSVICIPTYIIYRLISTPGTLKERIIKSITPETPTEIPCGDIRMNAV
Sequence of Norepinephrine transporter (Q9WTR4 whole entry): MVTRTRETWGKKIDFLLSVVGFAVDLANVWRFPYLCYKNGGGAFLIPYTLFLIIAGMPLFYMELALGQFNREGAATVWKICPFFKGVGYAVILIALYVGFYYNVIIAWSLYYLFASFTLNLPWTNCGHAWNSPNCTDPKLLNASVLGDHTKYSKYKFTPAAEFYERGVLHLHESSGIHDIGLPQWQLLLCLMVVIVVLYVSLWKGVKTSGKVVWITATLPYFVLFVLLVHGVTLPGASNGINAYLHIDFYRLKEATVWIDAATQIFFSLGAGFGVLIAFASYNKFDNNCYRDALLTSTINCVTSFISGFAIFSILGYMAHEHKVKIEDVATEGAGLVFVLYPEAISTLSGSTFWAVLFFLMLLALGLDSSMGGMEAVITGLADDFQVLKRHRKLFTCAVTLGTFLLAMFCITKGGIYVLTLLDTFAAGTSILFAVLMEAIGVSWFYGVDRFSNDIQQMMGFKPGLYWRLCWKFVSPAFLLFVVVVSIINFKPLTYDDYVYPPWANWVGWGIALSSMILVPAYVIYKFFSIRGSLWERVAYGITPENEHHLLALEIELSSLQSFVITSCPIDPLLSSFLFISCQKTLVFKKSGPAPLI

One may read the pKi as the Ki on a negative log10 scale, so that one unit is a factor of ten. As for `c1ccc2oc(SCCCCN3CCN(C4CCCCC4)CC3)nc2c1`, in test [1], the negative-log Ki (pKi) was 8.42.

`O=c1sc2ccccc2n1CCCCCCN1CCN(C2CCCCC2)CC1` had a pKi in test [1] of 8.83. The Ratio Ki in test [2] was 4.4.

Regarding `O=c1oc2ccccc2n1CCCCCN1CCN(C2CCCCC2)CC1`, in test [1], the pKi is 8.23. Besides, the Ratio Ki in test [2] came to 1.79.

The molecule `O=c1oc2ccccc2n1CCCN1CCN(C2CCCCC2)CC1` gave a pKi in test [1] of 8.06.

Regarding `S=c1oc2ccccc2n1CCCCN1CCN(C2CCCCC2)CC1`, in test [1], the pKi is 9.11.

Take `CCCc1ccc2c(c1)sc(=O)n2CCN1CCCCCC1`: in [3], the result was Active. For the same molecule, the pKi in test [4] was 9.92; in test [1], 6.08. The Ratio Ki in test [2] amounted to 0.00014.

For `COc1cccc2c1CCCC2CCCN1CCN(C2CCCCC2)CC1` (configuration not stated), the pKi in [4] is 8.83; in test [1], 8.95. For the same molecule, the Ratio Ki in test [2] came to 1.33.

In the case of `O=c1oc2ccccc2n1CCCCN1CCN(C2CCCCC2)CC1`, the pKi in test [1] is 8.74. In test [2], the Ratio Ki came out at 6.15.

In test [1], `O=c1sc2ccccc2n1CCCN1CCN(C2CCCCC2)CC1` gave a pKi of 8.52. Moreover, the Ratio Ki in [2] was found to be 1.84.

`O=c1sc2ccccc2n1CCCCCN1CCN(C2CCCCC2)CC1` gave a negative-log Ki (pKi) in test [1] of 8.61.

For `O=c1sc2ccccc2n1CCCCN1CCN(C2CCCCC2)CC1`, the negative-log Ki (pKi) in test [1] was 9.41.

As to `O=c1sc2ccccc2n1CCN1CCN(C2CCCCC2)CC1`, the pKi in [1] is 8.65.

On to `O=c1oc2ccccc2n1CCCCCCN1CCN(C2CCCCC2)CC1`, for which the negative-log Ki (pKi) in test [1] was 8.51. Moreover, the Ratio Ki in test [2] was found to be 1.5.

Take `S=c1sc2ccccc2n1CCCCN1CCN(C2CCCCC2)CC1`: the negative logarithm of the Ki (pKi) in test [5] was less than 5.00; in [6], 5.88; in test [1] it was 9.26; in [7], 5.93; in test [8], 5.85; in [9] it was less than 5.00. Moreover, the pKi in test [10] is less than 5.00. Further, the Ratio Ki in test [2] worked out at 2.33.

As to `O=c1oc2ccccc2n1CCN1CCN(C2CCCCC2)CC1`, the pKi in test [1] is 8.27.

(Values after ChEMBL document CHEMBL1143251 (J Med Chem, 2008).)
